# Test results as given in patent publication US20260092071A1, “COMPOUNDS AND COMPOSITIONS AS SMARCA2/4 DEGRADERS AND USES THEREOF” (REGENTS OF THE UNIVERSITY OF MICHIGAN, priority 2022, published 2026).
# Read-outs that look alike come from different tables or passages of the source.
# Key:
# SMARCA2 = SMARCA2 (Homo sapiens, UniProt P51531); test: HiBiT assay for protein degradation, Hela SMARCA2-HiBiT cells (A series); format: cell-based; design: Hela cells were genetically modified via CRISPR/Cas9 to fuse HiBiT to the carboxy terminus of SMARCA2; host or cells: HeLa (CRISPR/Cas9 HiBiT knock-in); details: for DC50: read-out: SMARC A2 Hela HiBit DC50; for Dmax: read-out: SMARC A2 Hela HiBit Dmax (%);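 on SMARC A2 Hela HiBit Dmax (%): 24 h compound treatment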
# How it was run: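 HeLa cells engineered by CRISPR/Cas9 to carry a HiBiT tag fused to the C-terminus of SMARCA2 (Promega CS302365) were grown in DMEM supplemented with FBS and penicillin-streptomycin. After treatment, remaining SMARCA2 protein was quantified with the Nano-Glo® HiBiT Lytic Detection Assay (Promega N3050), and curves were fitted in GraphPad Prism.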
# SMARCA4 = SMARCA4 (Homo sapiens, UniProt P51532); test: HiBiT assay for protein degradation, Hela SMARCA4-HiBiT cells (A series); format: cell-based; design: fuse HiBiT to the carboxy terminus of SMARCA2 (Promega CS302365) or SMARCA4 (Promega CS3023225); host or cells: HeLa (CRISPR/Cas9 HiBiT knock-in); details: for DC50: read-out: SMARC A4 Hela HiBit DC50
# How it was run: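 HeLa cells engineered by CRISPR/Cas9 to carry a HiBiT tag fused to the C-terminus of SMARCA4 (Promega CS3023225) were grown in DMEM supplemented with FBS and penicillin-streptomycin. After compound exposure, remaining SMARCA4 protein was quantified using the Nano-Glo® HiBiT Lytic Detection Assay (Promega N3050), and curves were fitted in GraphPad Prism.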
# [1] = Hela SMARCA2-HiBiT cells, 24 hours treatment
# [2] = Hela SMARCA4-HiBiT cells, 24 hours treatment
# [3] = Hela SMARCA4-HiBiT cells, 24 hours treatment, read-out: SMARC A4 Hela HiBit Dmax
# SMARCA2, sequence (P51531 whole entry, the tested form may be a part): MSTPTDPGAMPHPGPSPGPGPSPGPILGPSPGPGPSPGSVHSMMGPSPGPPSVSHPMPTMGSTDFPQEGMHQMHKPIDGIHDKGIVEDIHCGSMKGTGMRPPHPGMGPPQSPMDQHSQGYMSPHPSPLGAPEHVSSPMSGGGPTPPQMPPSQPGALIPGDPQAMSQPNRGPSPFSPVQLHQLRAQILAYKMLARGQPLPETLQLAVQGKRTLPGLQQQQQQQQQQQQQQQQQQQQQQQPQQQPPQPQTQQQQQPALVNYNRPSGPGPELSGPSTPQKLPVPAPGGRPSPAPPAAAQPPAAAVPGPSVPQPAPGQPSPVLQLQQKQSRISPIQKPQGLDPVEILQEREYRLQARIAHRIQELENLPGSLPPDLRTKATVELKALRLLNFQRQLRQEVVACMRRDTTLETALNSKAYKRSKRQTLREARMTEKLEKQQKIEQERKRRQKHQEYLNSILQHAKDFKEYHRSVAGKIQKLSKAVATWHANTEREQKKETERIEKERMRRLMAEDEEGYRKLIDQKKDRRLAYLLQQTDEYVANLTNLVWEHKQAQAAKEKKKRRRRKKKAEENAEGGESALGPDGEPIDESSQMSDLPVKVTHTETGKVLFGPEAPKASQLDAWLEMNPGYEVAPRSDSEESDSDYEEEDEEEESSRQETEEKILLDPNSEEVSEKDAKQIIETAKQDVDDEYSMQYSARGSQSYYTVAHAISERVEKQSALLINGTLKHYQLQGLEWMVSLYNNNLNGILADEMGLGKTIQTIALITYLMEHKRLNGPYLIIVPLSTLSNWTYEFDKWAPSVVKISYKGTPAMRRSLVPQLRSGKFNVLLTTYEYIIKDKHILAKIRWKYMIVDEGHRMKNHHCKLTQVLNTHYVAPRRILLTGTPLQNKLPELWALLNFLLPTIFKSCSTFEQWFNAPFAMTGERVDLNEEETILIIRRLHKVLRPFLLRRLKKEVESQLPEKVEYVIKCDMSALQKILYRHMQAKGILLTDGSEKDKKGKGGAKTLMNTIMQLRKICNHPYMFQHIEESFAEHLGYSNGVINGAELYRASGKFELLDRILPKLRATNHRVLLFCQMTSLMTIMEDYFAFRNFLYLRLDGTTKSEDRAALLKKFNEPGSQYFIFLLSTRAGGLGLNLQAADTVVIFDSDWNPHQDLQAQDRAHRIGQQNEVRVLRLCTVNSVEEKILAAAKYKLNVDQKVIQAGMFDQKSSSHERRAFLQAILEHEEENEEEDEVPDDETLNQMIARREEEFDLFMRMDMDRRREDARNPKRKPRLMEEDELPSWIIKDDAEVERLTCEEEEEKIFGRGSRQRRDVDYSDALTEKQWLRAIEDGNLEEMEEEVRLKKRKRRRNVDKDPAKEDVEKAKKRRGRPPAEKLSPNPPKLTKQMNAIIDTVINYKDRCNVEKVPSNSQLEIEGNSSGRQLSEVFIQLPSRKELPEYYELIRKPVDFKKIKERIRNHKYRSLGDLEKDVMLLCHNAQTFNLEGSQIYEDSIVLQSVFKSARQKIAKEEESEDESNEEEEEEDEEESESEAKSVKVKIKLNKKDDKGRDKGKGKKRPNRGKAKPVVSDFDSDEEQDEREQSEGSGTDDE
# SMARCA4, sequence (P51532 whole entry, the tested form may be a part): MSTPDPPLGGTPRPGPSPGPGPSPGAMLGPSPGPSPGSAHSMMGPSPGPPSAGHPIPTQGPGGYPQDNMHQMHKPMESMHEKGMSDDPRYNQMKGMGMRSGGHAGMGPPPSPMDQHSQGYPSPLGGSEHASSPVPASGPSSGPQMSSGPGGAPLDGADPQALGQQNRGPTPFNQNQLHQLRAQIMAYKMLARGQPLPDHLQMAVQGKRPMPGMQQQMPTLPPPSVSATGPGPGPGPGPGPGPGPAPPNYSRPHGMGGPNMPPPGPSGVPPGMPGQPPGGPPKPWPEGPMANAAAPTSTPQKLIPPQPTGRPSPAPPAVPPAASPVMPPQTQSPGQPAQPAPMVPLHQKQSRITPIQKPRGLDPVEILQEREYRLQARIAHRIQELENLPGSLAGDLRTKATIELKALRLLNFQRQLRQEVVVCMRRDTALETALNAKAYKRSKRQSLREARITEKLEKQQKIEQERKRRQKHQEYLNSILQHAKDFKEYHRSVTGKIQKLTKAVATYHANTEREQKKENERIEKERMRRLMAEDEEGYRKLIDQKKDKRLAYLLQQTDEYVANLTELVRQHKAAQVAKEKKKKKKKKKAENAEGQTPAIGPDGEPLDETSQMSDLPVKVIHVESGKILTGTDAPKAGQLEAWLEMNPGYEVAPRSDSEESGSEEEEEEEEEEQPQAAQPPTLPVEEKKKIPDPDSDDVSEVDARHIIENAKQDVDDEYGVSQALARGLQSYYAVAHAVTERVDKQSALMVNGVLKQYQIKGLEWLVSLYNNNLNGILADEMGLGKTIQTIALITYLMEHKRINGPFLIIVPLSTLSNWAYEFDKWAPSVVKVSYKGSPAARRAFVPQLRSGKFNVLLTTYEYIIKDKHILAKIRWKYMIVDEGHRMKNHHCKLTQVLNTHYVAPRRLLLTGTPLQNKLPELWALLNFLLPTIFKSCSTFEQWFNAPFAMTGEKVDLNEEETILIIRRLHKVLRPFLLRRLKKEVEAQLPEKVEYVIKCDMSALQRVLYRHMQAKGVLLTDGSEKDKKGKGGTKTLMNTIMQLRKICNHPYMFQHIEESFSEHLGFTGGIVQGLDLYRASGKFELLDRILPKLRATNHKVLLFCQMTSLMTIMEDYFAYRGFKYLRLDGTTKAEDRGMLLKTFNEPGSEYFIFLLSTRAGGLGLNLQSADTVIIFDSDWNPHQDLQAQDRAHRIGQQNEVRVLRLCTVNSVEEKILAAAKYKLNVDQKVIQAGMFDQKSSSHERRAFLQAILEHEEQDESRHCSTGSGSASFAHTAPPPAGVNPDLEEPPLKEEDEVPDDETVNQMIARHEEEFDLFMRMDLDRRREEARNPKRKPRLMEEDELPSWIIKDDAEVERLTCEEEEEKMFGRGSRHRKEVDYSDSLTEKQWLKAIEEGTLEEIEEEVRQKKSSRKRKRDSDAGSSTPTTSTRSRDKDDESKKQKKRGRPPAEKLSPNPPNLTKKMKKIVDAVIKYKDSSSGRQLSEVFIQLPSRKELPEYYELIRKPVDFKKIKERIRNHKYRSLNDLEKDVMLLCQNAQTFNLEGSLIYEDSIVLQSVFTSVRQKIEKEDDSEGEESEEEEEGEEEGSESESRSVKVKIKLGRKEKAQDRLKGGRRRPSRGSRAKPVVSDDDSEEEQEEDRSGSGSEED
DC50 (SMARCA2; [1]) [nM],Dmax (SMARCA2; [1]) [%],DC50 (SMARCA4; [2]) [nM],Dmax (SMARCA4; [3]) [%],SMARC A2 Hela HiBit Dmax (%) (SMARCA2; [1]),DC50 (SMARCA2) [nM],SMARC A4 Hela HiBit Dmax(%) (SMARCA4; [2]),DC50 (SMARCA4) [nM],"Dmax (SMARCA4; Hela SMARCA4-HiBiT cells, 24 hours treatment, read-out: SMARC A4 Hela HiBit Dmax(%)) [%]",Structure (SMILES)
< 10,> 90,> 1000,< 50,,,,,,"Cc1ncoc1-c1ccc([C@H](CN2CCOCC2)NC(=O)[C@@H]2C[C@@H](O)CN2C(=O)[C@@H](n2cc([C@H]3CC[C@H](CN4CCC(c5ccc6c(c5)-n5c(nc(=O)c7c(Cl)cccc75)C65CCCCC5)CC4)CC3)nn2)C(C)(C)C)cc1 [Compound A165, (2S,4R)-1-((S)-2-(4-((1r,4S)-4-((4-(4′-chloro-5′-oxo-5′H-spiro[cyclohexane-1,7′-indolo[1,2-a]quinazolin]-10′-yl)piperidin-1-yl)methyl)cyclohexyl)-1H-1,2,3-triazol-1-yl)-3,3-dimethylbutanoyl)-4-hydroxy-N—((R)-1-(4-(4-methyloxazol-5-yl)phenyl)-2-morpholinoethyl)pyrrolidine-2-carboxamide]"
,,,,B (B (70-90% degradation)),< 100,B (B (70-90% degradation)),< 100,,"Cc1ncsc1-c1ccc([C@H](CCCCCN2CCC(c3ccc4c(c3)C3(CCCCC3)c3nc(=O)c5c(Br)cccc5n3-4)CC2)NC(=O)[C@@H]2C[C@@H](O)CN2C(=O)[C@@H](NC(=O)C2(CN(C)C)CC2)C(C)(C)C)cc1 [Compound A18, (2S,4R)—N—((S)-6-(4-(4′-bromo-5′-oxo-5′H-spiro[cyclohexane-1,7′-indolo[1,2-a]quinazolin]-9′-yl)piperidin-1-yl)-1-(4-(4-methylthiazol-5-yl)phenyl)hexyl)-1-((S)-2-(1-((dimethylamino)methyl)cyclopropane-1-carboxamido)-3,3-dimethylbutanoyl)-4-hydroxypyrrolidine-2-carboxamide]"
10 to 100,> 90,> 1000,< 50,,,,,,"Cc1ncsc1-c1ccc([C@H](CN2CCOCC2)NC(=O)[C@@H]2C[C@@H](O)CN2C(=O)[C@H](C2CCCCC2)n2cc([C@H]3CC[C@H](CN4CCC(c5ccc6c(c5)-n5c(nc(=O)c7c(Cl)cccc75)C65CCCCC5)C4)CC3)nn2)cc1 (stereo partly drawn) [Compound A130, (2S,4R)-1-((2S)-2-(4-((1r,4S)-4-((3-(4′-chloro-5′-oxo-5′H-spiro[cyclohexane-1,7′-indolo[1,2-a]quinazolin]-10′-yl)pyrrolidin-1-yl)methyl)cyclohexyl)-1H-1,2,3-triazol-1-yl)-2-cyclohexylacetyl)-4-hydroxy-N—((R)-1-(4-(4-methylthiazol-5-yl)phenyl)-2-morpholinoethyl)pyrrolidine-2-carboxamide]"
< 10,> 90,> 1000,< 50,,,,,,Cc1ncsc1-c1ccc([C@H](CN2CCOCC2)NC(=O)[C@@H]2C[C@@H](O)CN2C(=O)[C@@H](n2cc([C@H]3CC[C@H](CN4CCC(c5ccc6c(c5)-n5c(nc(=O)c7c(Cl)cccc75)C6(C)C)CC4)CC3)nn2)C(C)(C)C)cc1 [Compound A90]
< 100,> 90,< 100,,,,,,> 90,"Cc1ncsc1-c1ccc([C@H](C)NC(=O)[C@@H]2C[C@@H](O)CN2C(=O)[C@@H](n2cc(CN3CCC(c4ccc5c(c4)C4(CCCCC4)c4nc(=O)c6c(Br)cccc6n4-5)CC3)nn2)C(C)(C)C)cc1 [Compound A53, (2S,4R)-1-((S)-2-(4-((4-(4′-bromo-5′-oxo-5′H-spiro[cyclohexane-1,7′-indolo[1,2-a]quinazolin]-9′-yl)piperidin-1-yl)methyl)-1H-1,2,3-triazol-1-yl)-3,3-dimethylbutanoyl)-4-hydroxy-N—((S)-1-(4-(4-methylthiazol-5-yl)phenyl)ethyl)pyrrolidine-2-carboxamide]"
